From patent US10238670B2, “9-aminomethyl minocycline compounds and methods of use thereof in urinary tract infection (UTI) treatment” (Paratek Pharmaceuticals, Inc., priority 2016, dated 2019)
≈ marks a conversion by molar mass, not a printed value.

Assays:
Assay in all cases: In vitro MIC, 2010 surveillance isolates
[1] = tested on: MR CoNS; format: cell-based, Coagulase-Negative Staphylococcus; conditions: for % R (resistance): Eucast breakpoints
[2] = tested on: E. faecium VS; format: cell-based
[3] = tested on: K. oxytoca; format: cell-based
[4] = tested on: E. cloacae CeftazR; format: cell-based
[5] = tested on: E. coli ESBL+; format: cell-based, Escherichia coli
[6] = tested on: K. pneumoniae ESBL−; format: cell-based, Klebsiella pneumoniae
[7] = tested on: E. faecium VNS; format: cell-based
[8] = tested on: MSSA; format: cell-based

SMILES: CN(C)c1cc(NC(=O)CNC(C)(C)C)c(O)c2c1C[C@H]1C[C@H]3[C@H](N(C)C)C(O)=C(C(N)=O)C(=O)[C@@]3(O)C(O)=C1C2=O [Tigecycline]
- % R (resistance) ([1]; Asia/Pac): 0%
- MIC90 ([1]; Asia/Pac, N=77): 0.25 µg/mL (≈ 0.427 µM)
- % R (resistance) ([1]; Europe): 0%
- MIC90 ([1]; Europe, N=510): 0.25 µg/mL (≈ 0.427 µM)
- MIC90 ([1]; L. Amer, N=301): 0.25 µg/mL (≈ 0.427 µM)
- MIC90 ([1]; N America, N=461): 0.25 µg/mL (≈ 0.427 µM)
- % R (resistance) ([2]; Asia/Pac, Eucast breakpoints): 0%
- MIC90 ([2]; Asia/Pac, N=106): 0.12 µg/mL (≈ 0.205 µM)
- % R (resistance) ([2]; Europe, Eucast breakpoints): 0%
- MIC90 ([2]; Europe, N=303): 0.12 µg/mL (≈ 0.205 µM)
- % R (resistance) ([2]; L. Amer, CLSI breakpoints): 0%
- MIC90 ([2]; L. Amer, N=51): 0.12 µg/mL (≈ 0.205 µM)
- % R (resistance) ([2]; N America, CLSI breakpoints): 0%
- MIC90 ([2]; N America, N=115): 0.25 µg/mL (≈ 0.427 µM)
- % R (resistance) ([3]; Asia/Pac, Eucast breakpoints): 5.9%
- MIC90 ([3]; Asia/Pac, N=17): 0.5 µg/mL (≈ 0.854 µM)
- % R (resistance) ([3]; Europe, Eucast breakpoints): 0%
- MIC90 ([3]; Europe, N=158): 0.5 µg/mL (≈ 0.854 µM)
- % R (resistance) ([3]; L. Amer, CLSI breakpoints): 0%
- MIC90 ([3]; L. Amer, N=25): 1 µg/mL (≈ 1.71 µM)
- % R (resistance) ([3]; N America, CLSI breakpoints): 0%
- MIC90 ([3]; N America, N=177): 0.5 µg/mL (≈ 0.854 µM)
- % R (resistance) ([4]; Asia/Pac, Eucast breakpoints): 1.6%
- MIC90 ([4]; Asia/Pac, N=63): 0.5 µg/mL (≈ 0.854 µM)
- % R (resistance) ([4]; Europe, Eucast breakpoints): 0%
- MIC90 ([4]; Europe, N=72): 0.5 µg/mL (≈ 0.854 µM)
- % R (resistance) ([4]; L. Amer, CLSI breakpoints): 0%
- MIC90 ([4]; L. Amer, N=42): 1 µg/mL (≈ 1.71 µM)
- % R (resistance) ([4]; N America, CLSI breakpoints): 0%
- MIC90 ([4]; N America, N=77): 2 µg/mL (≈ 3.41 µM)
- % R (resistance) ([5]; Asia/Pac, Eucast breakpoints): 0%
- MIC90 ([5]; Asia/Pac, N=219): 0.25 µg/mL (≈ 0.427 µM)
- % R (resistance) ([5]; Europe, Eucast breakpoints): 0%
- MIC90 ([5]; Europe, N=274): 0.5 µg/mL (≈ 0.854 µM)
- % R (resistance) ([5]; L. Amer, CLSI breakpoints): 0%
- MIC90 ([5]; L. Amer, N=168): 0.25 µg/mL (≈ 0.427 µM)
- % R (resistance) ([5]; N America, CLSI breakpoints): 0%
- MIC90 ([5]; N America, N=134): 0.25 µg/mL (≈ 0.427 µM)
- % R (resistance) ([6]; Asia/Pac, Eucast breakpoints): 1.1%
- MIC90 ([6]; Asia/Pac, N=189): 0.5 µg/mL (≈ 0.854 µM)
- % R (resistance) ([6]; Europe, Eucast breakpoints): 0.3%
- MIC90 ([6]; Europe, N=361): 0.5 µg/mL (≈ 0.854 µM)
- % R (resistance) ([6]; L. Amer, CLSI breakpoints): 0%
- MIC90 ([6]; L. Amer, N=160): 0.5 µg/mL (≈ 0.854 µM)
- % R (resistance) ([6]; N America, CLSI breakpoints): 0%
- MIC90 ([6]; N America, N=671): 0.5 µg/mL (≈ 0.854 µM)
- % R (resistance) ([7]; Asia/Pac, Eucast breakpoints): 0%
- MIC90 ([7]; Asia/Pac, N=24): 0.25 µg/mL (≈ 0.427 µM)
- % R (resistance) ([7]; Europe, Eucast breakpoints): 0%
- MIC90 ([7]; Europe, N=71): 0.25 µg/mL (≈ 0.427 µM)
- % R (resistance) ([7]; L. Amer, CLSI breakpoints): 0%
- MIC90 ([7]; L. Amer, N=41): 0.12 µg/mL (≈ 0.205 µM)
- % R (resistance) ([7]; N America, CLSI breakpoints): 0%
- MIC90 ([7]; N America, N=478): 0.25 µg/mL (≈ 0.427 µM)
- % R (resistance) ([8]; Asia/Pac, Eucast breakpoints): 0%
- MIC90 ([8]; Asia/Pac, N=641): 0.25 µg/mL (≈ 0.427 µM)
- % R (resistance) ([8]; Europe, Eucast breakpoints): 0%
- MIC90 ([8]; Europe, N=2109): 0.25 µg/mL (≈ 0.427 µM)
- % R (resistance) ([8]; L. Amer, CLSI breakpoints): 0%
- MIC90 ([8]; L. Amer, N=590): 0.25 µg/mL (≈ 0.427 µM)
- % R (resistance) ([8]; N America, CLSI breakpoints): 0%
